# From patent US20100210836A1, “SMALL MOLECULE INHIBITORS OF LYMPHOID TYROSINE PHOSPHATASE” (University of Southern California, priority 2009, published 2010)
# Where two headings read alike, the source gives them in different places.
# Columns and labels:
# CD45 = biological target: T1, CD45 (Homo sapiens, UniProt P08575); test: Counter-screen phosphatase assay CD45; format: biochemical; conditions: Table II
# T1 construct: The catalytic domain of CD45 was purchased from Biomol Inc; purchased Biomol Inc
# T1 sequence (P08575 653-912 limits assumed): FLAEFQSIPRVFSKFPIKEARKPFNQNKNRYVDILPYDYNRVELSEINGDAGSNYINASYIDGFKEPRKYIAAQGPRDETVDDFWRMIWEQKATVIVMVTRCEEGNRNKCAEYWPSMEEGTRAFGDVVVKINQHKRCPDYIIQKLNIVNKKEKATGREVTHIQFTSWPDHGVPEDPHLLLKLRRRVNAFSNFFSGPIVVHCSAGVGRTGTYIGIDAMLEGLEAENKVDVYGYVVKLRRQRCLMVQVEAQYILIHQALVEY
# Procedure: Materials, chemicals and enzymes. All chemicals were purchased from commercial sources unless otherwise noted. Compounds were dissolved in DMSO, and stock solutions were stored at −20° C. The catalytic domain of CD45 was purchased from Biomol Inc.
# HePTP = biological target: T2, HePTP (Homo sapiens, UniProt P35236); test: biochemical
# T2 sequence (P35236 65-360): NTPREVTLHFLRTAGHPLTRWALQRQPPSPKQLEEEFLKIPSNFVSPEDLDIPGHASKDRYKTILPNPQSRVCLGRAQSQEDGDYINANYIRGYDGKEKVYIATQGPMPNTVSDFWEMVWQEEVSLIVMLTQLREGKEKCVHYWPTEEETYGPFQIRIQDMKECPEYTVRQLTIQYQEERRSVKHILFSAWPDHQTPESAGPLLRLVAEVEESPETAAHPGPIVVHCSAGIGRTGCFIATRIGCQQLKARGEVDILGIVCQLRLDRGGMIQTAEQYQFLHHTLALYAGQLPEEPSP
# LMPTP-A = biological target: T3, LMPTP-A (Homo sapiens, UniProt P24666); test: biochemical
# T3 sequence (P24666 1-158): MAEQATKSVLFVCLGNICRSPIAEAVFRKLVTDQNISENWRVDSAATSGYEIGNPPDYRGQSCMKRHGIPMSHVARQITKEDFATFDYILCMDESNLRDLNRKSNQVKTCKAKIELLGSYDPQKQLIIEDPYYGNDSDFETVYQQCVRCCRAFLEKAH
# LYP/PTPN22 = biological target: T4, LYP/PTPN22 (Homo sapiens, UniProt Q9Y2R2); test: biochemical
# T4 construct: catalytic domains of LYP (aa 2-309) and PTP-PEST (aa 2-323, PEST); 6xHis (N, cleaved yes); made in house; host or cells: E. coli BL21
# T4 sequence (Q9Y2R2 2-309): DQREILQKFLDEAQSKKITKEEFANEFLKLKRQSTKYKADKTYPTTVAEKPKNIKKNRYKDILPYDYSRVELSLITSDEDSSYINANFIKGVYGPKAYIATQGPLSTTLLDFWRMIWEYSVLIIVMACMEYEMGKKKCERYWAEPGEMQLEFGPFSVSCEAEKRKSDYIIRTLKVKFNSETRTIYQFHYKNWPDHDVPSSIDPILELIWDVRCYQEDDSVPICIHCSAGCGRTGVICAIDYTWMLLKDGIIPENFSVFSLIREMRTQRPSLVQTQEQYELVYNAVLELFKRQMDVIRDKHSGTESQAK
# Procedure: Chemical Library Screening for LYP Inhibitors. A library consisting of a highly diverse set of 4,000 compounds was screened in a 96-well format in an assay specific for LYP activity. […] The reaction mixture with the compounds was incubated for 25 min at 37° C. […] All assays were done in triplicate. The IC50 values were then determined for each drug from a plot of log [drug concentration] versus percentage of enzyme inhibition. Absorbance data were measured using a Molecular Devices Emax Precision Microplate reader.
# Identification of Compounds as LYP Inhibitors. We initially screened a library of 4000 drug-like small-molecule compounds against LYP/PTPN22, using p-nitrophenyl phosphate (pNPP) as a substrate. The ability of the library members to inhibit LYP/PTPN22 catalyzed hydrolysis of pNPP was measured in a buffer containing 50 mM Bis-Tris pH 6.0, 1 mM DTT at 37° C.
# PTP-PEST = biological target: T5, PTP-PEST (Homo sapiens, UniProt Q05209); test: Counter-screen phosphatase assay PTP-PEST; format: biochemical
# T5 sequence (Q05209 2-323): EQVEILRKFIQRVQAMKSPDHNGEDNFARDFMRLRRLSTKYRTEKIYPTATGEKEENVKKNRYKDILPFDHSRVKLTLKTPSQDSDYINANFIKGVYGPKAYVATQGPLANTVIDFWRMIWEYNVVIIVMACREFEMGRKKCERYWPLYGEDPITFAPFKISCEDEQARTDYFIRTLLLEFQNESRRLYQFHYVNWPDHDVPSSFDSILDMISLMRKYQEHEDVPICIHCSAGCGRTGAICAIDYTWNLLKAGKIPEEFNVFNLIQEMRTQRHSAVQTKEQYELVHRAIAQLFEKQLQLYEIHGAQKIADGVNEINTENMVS
# ERK1/2 phosphorylation = test: Anti-pERK1/2 blot of JTAg cells; conditions: 50 μM, 1 h
# Procedure: (§1) The volume of DMSO added was held constant at less than 2% of the total volume. JTAg cells pre-incubated with DMSO or inhibitor were divided into 400 μL aliquots containing 10×10^6 cells and stimulated with supernatants of C305 hybridoma (31) for 2 min or left untreated. […] The total protein concentration in each cell lysate was determined by the Bradford protein assay (Bio-Rad) in order to normalize the amount of protein used in SDS-PAGE.
# (§2) Aliquots of lysates were suspended in SDS sample buffer, heated at 95° C. for 5 minutes and the boiled samples run on 10% SDS-polyacrylamide gels. Proteins resolved by gel electrophoresis were transferred onto nitrocellulose membranes (Hybond ECL, GE Healthcare), using appropriate dilutions of unconjugated primary antibodies followed by HRP-conjugated secondary antibodies (purchased from GE Healthcare). Blots were developed with the enhanced chemiluminescence detection system, ECL-Plus, following manufacturers directions.
# [1] = tested on: phosphorylation of ZAP-70; test: Anti-pZAP (Tyr319) blot of JTAg cells; conditions: 50 μM, 1 h
# Procedure: as §1, §2
# [2] = tested on: TCR-induced phosphorylation of SLP-76; test: Phospho-flow cytometry of JTAg cells, anti-pSLP76 (Tyr128); conditions: 50 μM, 1 h, compared to control
# Procedure: Phosphoflow cytometry. Phospho-flow cytometry was performed on JTAg cells following published protocols (BD Biosciences). […] Cell fluorescence was assessed on a Cytomics FC500 cytometer (Beckman Coulter) at the USC Immune Monitoring Core. Data Analysis and graph preparation were carried using FlowJo (Tree Star, Inc., Ashland, Oreg.).
# [3] = tested on: phosphorylation of Lck at Tyr394; test: Anti-pSrc (Tyr416) immunoblot of thymocytes from PTPN22+/+ mice; conditions: 50 μM, 1 h, anti-CD3/anti-CD4 plus streptavidin
# Procedure: (§3) The volume of DMSO added was held constant at less than 2% of the total volume. Thymocytes pre-incubated with DMSO or inhibitor were divided into 200 μL aliquots containing 10×10^6 cells, treated with biotinylated CD3 and CD4 antibodies for 30 min and stimulated with the crosslinker, streptavidin for 1.5 min, or left untreated.
# as §2
# (§4) In parallel, the compound was also tested on T cells from normal PTPN22+/+ mice.
# [4] = tested on: phosphorylation of Lck at Tyr394; test: Anti-pSrc (Tyr416) immunoblot of thymocytes from PTPN22-/- mice; conditions: 50 μM, 1 h, anti-CD3/anti-CD4 plus streptavidin
# Procedure: as §3, §2, §4
# [5] = LYP IC50, Table IV, analogues of E3P13
# [6] = selectivity, ratio PEST IC50 / LYP IC50, Table IV
smiles,measurement,setting,value
O=C(CSc1nc(C2CC2)nc2sc3c(c12)CCCC3)NCc1ccc2c(c1)OCO2 [G8P15],IC50,CD45,> 90 µM
same,IC50,HePTP,> 40 µM
same,IC50,LMPTP-A,> 90 µM
CCC(C)(C)n1nnnc1[C@@H](c1cc2cc(C)ccc2[nH]c1=O)N1CCCC2(CCCCC2)C1 [compound 9],IC50,LYP/PTPN22; [5],10.4 µM
same,PEST_LYP,LYP/PTPN22; [6],1.53
same,IC50,PTP-PEST; read-out: PEST IC50,15.9 µM
Cc1ccc2cc([C@@H](c3nnnn3C3CCCC3)N3CCCCC3)c(=O)[nH]c2c1 [compound 44],IC50,LYP/PTPN22; [5],32.5 µM
same,PEST_LYP,LYP/PTPN22; [6],2.11
same,IC50,PTP-PEST; read-out: PEST IC50,68.5 µM
Cc1ccc2[nH]c(=O)c([C@@H](c3nnnn3Cc3ccccc3)N3CCCC4(CCCCC4)C3)cc2c1 [compound 11],IC50,LYP/PTPN22; [5],11.1 µM
same,PEST_LYP,LYP/PTPN22; [6],1.36
same,IC50,PTP-PEST; read-out: PEST IC50,15.1 µM
COc1ccc2cc([C@H](c3nnnn3Cc3ccccc3)N3CCCC4(CCCCC4)C3)c(=O)[nH]c2c1 [compound 27],IC50,LYP/PTPN22; [5],19.3 µM
same,PEST_LYP,LYP/PTPN22; [6],0.71
same,IC50,PTP-PEST; read-out: PEST IC50,13.7 µM
Cc1ccc2cc(C(c3nnnn3C3CCCC3)N3CCCC4(CCCCC4)C3)c(=O)[nH]c2c1 (centres unmarked) [compound 21],PEST_LYP,LYP/PTPN22,1.43
same,IC50,LYP/PTPN22; LYP IC50,15.2 µM
same,IC50,PTP-PEST; read-out: PEST IC50,21.8 µM
Cc1cc(C)c2[nH]c(=O)c(C(c3nnnn3C3CCCC3)N3CCCC4(CCCCC4)C3)cc2c1 (centres unmarked) [compound 30],PEST_LYP,LYP/PTPN22,1.53
same,IC50,LYP/PTPN22; LYP IC50,20.4 µM
same,IC50,PTP-PEST; read-out: PEST IC50,31.1 µM
COc1ccc2cc(C(c3nnnn3C3CCCC3)N3CCCC4(CCCCC4)C3)c(=O)[nH]c2c1 (centres unmarked) [compound 26],PEST_LYP,LYP/PTPN22,1.74
same,IC50,LYP/PTPN22; LYP IC50,18.2 µM
same,IC50,PTP-PEST; read-out: PEST IC50,31.7 µM
Cc1ccc2cc([C@H](c3nnnn3Cc3ccccc3)N3CCCC4(CCCCC4)C3)c(=O)[nH]c2c1C [compound 25],IC50,LYP/PTPN22; [5],18.1 µM
same,PEST_LYP,LYP/PTPN22; [6],0.99
same,IC50,PTP-PEST; read-out: PEST IC50,17.8 µM
Cc1cccc2cc([C@H](c3nnnn3Cc3ccccc3)N3CCCC4(CCCCC4)C3)c(=O)[nH]c12 [compound 31],IC50,LYP/PTPN22; [5],20.4 µM
same,PEST_LYP,LYP/PTPN22; [6],1.46
same,IC50,PTP-PEST; read-out: PEST IC50,29.8 µM
Cc1cc(C)c2[nH]c(=O)c([C@@H](c3nnnn3Cc3ccccc3)N3CCCC4(CCCCC4)C3)cc2c1 [compound 14],IC50,LYP/PTPN22; [5],12.9 µM
same,PEST_LYP,LYP/PTPN22; [6],1.18
same,IC50,PTP-PEST; read-out: PEST IC50,15.2 µM
CCC(C)(C)n1nnnc1[C@@H](c1cc2ccc(OC)cc2[nH]c1=O)N1CCCC2(CCCCC2)C1 [compound 35],IC50,LYP/PTPN22; [5],22.5 µM
same,PEST_LYP,LYP/PTPN22; [6],1.33
same,IC50,PTP-PEST; read-out: PEST IC50,29.9 µM
CCC(C)(C)n1nnnc1[C@@H](c1cc2cccc(C)c2[nH]c1=O)N1CCCC2(CCCCC2)C1 [compound 18],IC50,LYP/PTPN22; [5],13.4 µM
same,PEST_LYP,LYP/PTPN22; [6],0.96
same,IC50,PTP-PEST; read-out: PEST IC50,12.9 µM
Cc1ccc2[nH]c(=O)c([C@H](c3nnnn3C3CCCC3)N3CCN(c4ccccc4)CC3)cc2c1 [compound 47],PEST_LYP,LYP/PTPN22,0.89
same,IC50,LYP/PTPN22; LYP IC50,36.5 µM
same,IC50,PTP-PEST; read-out: PEST IC50,32.5 µM
Cc1ccc2[nH]c(=O)c(C(c3nnnn3C3CCCC3)N3CCCC4(CCCCC4)C3)cc2c1 (racemic) [E3P13],ERK1/2 phosphorylation,ERK1/2 phosphorylation,increased ERK1/2 phosphorylation
same,TCR-stimulated phosphorylation of ZAP-70 (Tyr319),[1],increased TCR-stimulated phosphorylation of ZAP-70
same,TCR-induced SLP-76 phosphorylation,[2],higher levels of TCR-induced SLP-76 phosphorylation
same,Lck phosphorylation at Tyr394,[3],increased Lck phosphorylation at Tyr394
same,phosphorylation of Lck at Tyr394,[4],no effect
CCC(C)(C)n1nnnc1[C@@H](c1cc2ccc(C)cc2[nH]c1=O)N1CCCC2(CCCCC2)C1 [compound 34],IC50,LYP/PTPN22; [5],21.4 µM
same,PEST_LYP,LYP/PTPN22; [6],1.6
same,IC50,PTP-PEST; read-out: PEST IC50,34.2 µM
Cc1cc(C)c2cc(C(c3nnnn3C3CCCC3)N3CCCC4(CCCCC4)C3)c(=O)[nH]c2c1 (centres unmarked) [compound 10],PEST_LYP,LYP/PTPN22,1.44
same,IC50,LYP/PTPN22; LYP IC50,11.1 µM
same,IC50,PTP-PEST; read-out: PEST IC50,16 µM
O=c1[nH]c2ccccc2cc1[C@@H](c1nnnn1C1CCCC1)N1CCc2ccccc2C1 [compound 37],IC50,LYP/PTPN22; [5],28 µM
same,PEST_LYP,LYP/PTPN22; [6],1.13
same,IC50,PTP-PEST; read-out: PEST IC50,31.5 µM
Cc1cc(C)c2cc([C@H](c3nnnn3C3CCCC3)N3CCC[C@@H](C)C3)c(=O)[nH]c2c1 [compound 40],IC50,LYP/PTPN22; [5],30.6 µM
same,PEST_LYP,LYP/PTPN22; [6],1.12
same,IC50,PTP-PEST; read-out: PEST IC50,34.4 µM
COc1ccc(-n2ncc3c(SCC(=O)N4c5ccccc5CC4C)ncnc32)cc1 (racemic) [B11P32],IC50,"PTP-PEST; Table II, read-out: PTP-PEST IC50",> 40 µM
same,IC50,CD45,> 90 µM
same,IC50,LMPTP-A,> 90 µM
Cc1ccc2cc([C@H](c3nnnn3C3CCCC3)N3CCN(c4ccccc4)CC3)c(=O)[nH]c2c1 [compound 41],IC50,LYP/PTPN22; [5],31 µM
same,PEST_LYP,LYP/PTPN22; [6],~1.18
same,IC50,PTP-PEST; read-out: PEST IC50,~36.5 µM
CCC(C)(C)n1nnnc1[C@@H](c1cc2cc(C)cc(C)c2[nH]c1=O)N1CCCC2(CCCCC2)C1 [compound 12],IC50,LYP/PTPN22; [5],11.9 µM
same,PEST_LYP,LYP/PTPN22; [6],1.69
same,IC50,PTP-PEST; read-out: PEST IC50,20.1 µM
Cc1ccc2cc(C(c3nnnn3C3CCCC3)N3CCN(C(c4ccccc4)c4ccccc4)CC3)c(=O)[nH]c2c1 (centres unmarked) [compound 5],PEST_LYP,LYP/PTPN22,0.81
same,IC50,LYP/PTPN22; LYP IC50,7.86 µM
same,IC50,PTP-PEST; read-out: PEST IC50,9.66 µM
